Measured values taken from PMC4798002 (Bioorganic & medicinal chemistry letters, 2014).
In brackets after ≈: the same amount, converted by molar mass. Where two headings read alike, the source gives them in different places.

How the values were obtained:
[1] = tested on: hyper-permeable, ANT(2″)-Ia-expressing strain of E. coli BW25113; assay: Checkerboard analysis with gentamicin against ANT; assay type: cell-based; settings: for synergy with gentamicin (in words): ANT(2″)-Ia-expressing E. coli
ANT(2″)-Ia [2] = target: T1, ANT(2″)-Ia (Klebsiella pneumoniae, UniProt P0AE05); assay: ANT; assay type: biochemical; settings: for fold less potent than β-thujaplicinol: relative to β-thujaplicinol; for fold increase in activity over the other synthetic α-hydroxytropolones: relative to other synthetic α-hydroxytropolones
T1 sequence (P0AE05 whole entry): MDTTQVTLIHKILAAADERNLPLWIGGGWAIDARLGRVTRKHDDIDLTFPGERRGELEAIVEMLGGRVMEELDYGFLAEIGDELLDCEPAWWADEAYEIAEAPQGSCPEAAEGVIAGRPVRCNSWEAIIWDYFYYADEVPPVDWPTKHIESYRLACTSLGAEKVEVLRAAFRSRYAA

ANT(2″)-Ia [3] = target: T1, ANT(2″)-Ia; settings: cited from earlier work
[4] = tested on: E. coli BW25113 wild type; assay: Gentamicin MIC against wild type E. coli; assay type: cell-based; settings: Escherichia coli, BW25113, read-out: gentamicin MIC
[5] = tested on: isogenic E. coli mutant with the gene encoding aminoglycoside phosphotransferase (APH[2″]-Id); assay: Checkerboard analysis with gentamicin against APH; assay type: cell-based; settings: ANT(2″)-Ia-negative, APH(2″)-Id-positive bacteria
[6] = purified enzyme, 96 well format

Row | Structure (SMILES) | synergy with gentamicin (in words) [1] | ANT(2″)-Ia inhibitory activity (in words) (ANT(2″)-Ia [2]; [6]) | also measured
1 | CC(=O)c1cc(O)c(=O)c(O)cc1C [3e] | Synergy | significant inhibitory potency | gentamicin concentration at which no growth is seen ([1]; 50 μM of compound, lowest concentration of gentamicin tested): ≤ 2 µg/mL; fold less potent than β-thujaplicinol (ANT(2″)-Ia [2]): 5–10 fold
2 | Cc1cc(O)c(=O)c(O)cc1-c1ccc([N+](=O)[O-])cc1 [3g] | no synergistic activity | significant inhibitory potency | fold less potent than β-thujaplicinol (ANT(2″)-Ia [2]): 5–10 fold
3 | Cc1cc(O)c(=O)c(O)cc1-c1ccc(-c2ccccc2)cc1 [3h] | no synergistic activity | – | –
4 | Cc1cc(O)c(=O)c(O)cc1-c1ccccc1 [3i] | – | comparable potency to nitroaryl-containing 3g | –
5 | Cc1cc(O)c(=O)c(O)cc1-c1cccc2ccccc12 [3j] | – | no activity at all | –
6 | Cc1cc(O)c(=O)c(O)cc1-c1ccc2ccccc2c1 [3k] | – | no activity at all | –
7 | Cc1cc(O)c(=O)c(O)cc1-c1ccc(Br)cc1 [3l] | no synergistic activity | – | fold increase in activity over the other synthetic α-hydroxytropolones (ANT(2″)-Ia [2]): ~4 fold
8 | Cc1cc(O)c(=O)c(O)cc1-c1ccc(Cl)cc1 [3m] | no synergistic activity | – | fold increase in activity over the other synthetic α-hydroxytropolones (ANT(2″)-Ia [2]): ~4 fold
9 | Cc1cc(O)c(=O)c(O)cc1-c1ccc(C(F)(F)F)cc1 [3n] | Synergy | no activity at all | –
10 | Cc1cc(O)c(=O)c(O)cc1C(=O)C(C)C [3o] | – | appreciable inhibitory activity, which was comparable to 3e | –
11 | Cc1cc(O)c(=O)c(O)cc1C(=O)C1CCCCC1 [3p] | – | inactivity | –
12 | Cc1cc(O)c(=O)c(O)cc1C(=O)CC1CCCCC1 [3q] | – | inactivity | –
13 | COc1cc(C)c(C(C)=O)cc(O)c1=O [4e] | – | – | ANT(2″)-Ia inhibitory activity (in words) (ANT(2″)-Ia [2]): inactive
14 | COc1cc(C)c(-c2ccc([N+](=O)[O-])cc2)cc(O)c1=O [4g] | – | – | ANT(2″)-Ia inhibitory activity (in words) (ANT(2″)-Ia [2]): inactive
15 | O=c1cccccc1O [Tropolone] | – | – | ANT(2″)-Ia inhibition (in words) (ANT(2″)-Ia [3]): no activity
16 | CNC(C)C1CCC(N)C(OC2C(N)CC(N)C(OC3OCC(C)(O)C(NC)C3O)C2O)O1 (centres unmarked) [gentamicin, reference compound] | – | – | MIC [4]: 0.25 µg/mL (≈ 0.523 µM); MIC ([1]; Escherichia coli, BW25113, read-out: gentamicin MIC): 64 µg/mL
17 | O=c1c(O)ccccc1O [α-hydroxytropolone] | – | – | ANT(2″)-Ia inhibition (in words) (ANT(2″)-Ia [3]): capable of inhibiting
18 | CC(C)c1ccc(O)c(=O)c(O)c1 [β-thujaplicinol] | – | – | ANT(2″)-Ia inhibition (in words) (ANT(2″)-Ia [3]): capable of inhibiting; antibacterial effect of compound (in words) ([1]; 50 μM of compound): all of the bacterial cells have died; synergy with gentamicin (in words) [5]: no synergy
